Results: patent US7803795B2, “Phthalazine derivatives as parp inhibitors” (Janssen Pharmaceutica N.V., priority 2004, dated 2010)

Test system: not given
Assay: not given
Conditions: not given
For `O=c1[nH]nc(C2CCN(Cc3ccccc3)CC2)c2ccccc12` [Compound 1], the melting point was 222 °C. For `CCOC(=O)N1[C@@H]2CC[C@H]1C[C@H](Nc1n[nH]c(=O)c3ccccc13)C2` [Compound 11], the melting point was 218.6 °C.

Target: T1, PARP-1 enzyme (Homo sapiens, UniProt P09874)
T1 construct: made in house
T1 sequence (P09874 whole entry): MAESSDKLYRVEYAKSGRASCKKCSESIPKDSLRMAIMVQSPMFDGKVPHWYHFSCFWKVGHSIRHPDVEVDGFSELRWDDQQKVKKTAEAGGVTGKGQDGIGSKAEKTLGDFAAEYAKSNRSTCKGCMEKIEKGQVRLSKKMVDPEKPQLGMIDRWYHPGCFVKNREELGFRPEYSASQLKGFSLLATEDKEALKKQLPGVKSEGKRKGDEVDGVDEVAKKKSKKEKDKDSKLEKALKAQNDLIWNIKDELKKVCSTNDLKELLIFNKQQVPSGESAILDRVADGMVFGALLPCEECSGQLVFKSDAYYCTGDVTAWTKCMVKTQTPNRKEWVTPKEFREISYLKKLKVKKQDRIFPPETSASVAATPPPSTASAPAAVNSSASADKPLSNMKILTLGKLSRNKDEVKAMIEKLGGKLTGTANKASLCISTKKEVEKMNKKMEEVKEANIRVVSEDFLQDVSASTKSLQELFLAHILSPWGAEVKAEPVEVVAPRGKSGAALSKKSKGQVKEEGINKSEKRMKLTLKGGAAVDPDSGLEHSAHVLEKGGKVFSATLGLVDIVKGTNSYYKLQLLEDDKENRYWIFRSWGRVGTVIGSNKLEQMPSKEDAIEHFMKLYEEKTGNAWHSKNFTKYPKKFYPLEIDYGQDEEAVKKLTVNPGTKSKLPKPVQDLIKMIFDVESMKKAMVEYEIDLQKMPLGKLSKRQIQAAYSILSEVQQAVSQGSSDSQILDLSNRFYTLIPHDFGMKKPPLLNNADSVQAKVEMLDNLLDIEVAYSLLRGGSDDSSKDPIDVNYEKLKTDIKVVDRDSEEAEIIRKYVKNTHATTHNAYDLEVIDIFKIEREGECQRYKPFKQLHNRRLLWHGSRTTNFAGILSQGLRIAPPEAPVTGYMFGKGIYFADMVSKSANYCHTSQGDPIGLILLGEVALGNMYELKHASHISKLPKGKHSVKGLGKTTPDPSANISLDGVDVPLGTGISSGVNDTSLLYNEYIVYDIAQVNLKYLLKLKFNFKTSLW
Assay: in vitro filtration assay for PARP-1 inhibitory activity
Format: biochemical
Conditions: [32P]-NAD, histones, nicked DNA; dose-response 10^-5 M to 10^-8 M; read-out: in vitro filter assay PARP-1 pIC50 (converted)
Protocol: In Vitro Filtration Assay for PARP-1 Inhibitory Activity
Compounds of the present invention were tested in an in vitro filtration assay assessing PARP-1 activity (triggered in the presence of nicked DNA) by means of its histone poly (ADP-ribosylation activity using [^32P]-NAD as ADP-ribosyl donor. The radioactive ribosylated histones were precipitated by trichloroacetic acid (TCA) in 96-well filterplates and the incorporated [^32P] measured using a scintillation counter
A mixture of histones (stock solution: 5 mg/ml in H2O), NAD^+ (stock solution: 100 mM in H2O), and [^32P]-NAD^+ in incubation buffer (50 mM Tris/HCl, pH 8; 0.2 mM DTT; 4 mM MgCl2) was made. A mixture of the PARP-1 enzyme (5-10 μg/ml) and nicked DNA was also made. The nicked DNA was prepared as described in the in vitro SPA for PARP-1 inhibitory activity. Seventy-five μl of the PARP-1 enzyme/DNA mixture together with 1 μl of compound in DMSO and 25 μl of histones-NAD^+/[^32P]-NAD^+ mixture was added per well of a 96-well filterplate (0.45 μm, supplier Millipore). The final concentrations in the incubation mixture were 2 μg/ml for the histones, 0.1 mM for the NAD^+, […] (0.5 μC) for the [^32P]-NAD^+ and 2 μg/ml for the nicked DNA. Plates were incubated for 15 min. at room temperature and the reaction was terminated by the addition of 10 μl ice cold 100% TCA followed by the addition of 10 μl ice-cold BSA solution (1% in H2O). The protein fraction was allowed to precipitate for 10 min. at 4° C. and plates were vacuum filtered. The plates were subsequently washed with, for each well, 1 ml of 10% ice cold TCA, 1 ml of 5% ice cold TCA and 1 ml of 5% TCA at room temperature. Finally 100 μl of scintillation solution (Microscint 40, Packard) was added to each well and the plates were transferred to a TopCountNXT™ (supplier: Packard) for scintillation counting and values were expressed as counts per minute (cpm). For each experiment, controls (containing PARP-1 enzyme and DMSO without compound), a blank incubation (containing DMSO but no PARP-1 enzyme or compound) and samples (containing PARP-1 enzyme and compound dissolved in DMSO) were run in parallel. All compounds tested were dissolved and eventually further diluted in DMSO. In first instance, compounds were tested at a concentration of 10^−5M. […] In each test, the blank value was subtracted from both the control and the sample values. The control sample represented maximal PARP-1 enzyme activity. For each sample, the amount of cpm was expressed as a percentage of the mean cpm value of the controls. When appropriate, IC50-values (concentration of the drug, needed to reduce the PARP-1 enzyme activity to 50% of the control) were computed using linear interpolation between the experimental points just above and below the 50% level. Herein the effects of test compounds are expressed as pIC50 (the negative log value of the IC50-value). As a reference compound, 4-amino-1,8-naphthalimide was included to validate the filtration assay.
`O=c1[nH]nc(NCC2CCCN(CCCC(c3ccc(F)cc3)c3ccc(F)cc3)C2)c2ccccc12` (stereo not shown) [Compound 49] showed an IC50 of 516 nM. With `CCOC(=O)N1CCN(c2nnc(Cl)c3ccccc23)CC1` [Compound 58] the IC50 was 316 nM. Compound `O=c1[nH]nc(NC2CCN(C/C=C/c3ccccc3)CC2)c2ccccc12` [Compound 65] has an IC50 of 91.2 nM. Compound `O=c1[nH]nc(N[C@@H]2C[C@H]3CC[C@@H](C2)N3)c2ccccc12` [Compound 15] has an IC50 of 35.5 nM. With `O=c1[nH]nc(NC2CCCNCC2)c2ccccc12` (stereo not shown) [Compound 34] the IC50 was 49.4 nM. Compound `COc1ccc(CCN2CCC(Nc3n[nH]c(=O)c4ccccc34)CC2)cc1` [Compound 63] has an IC50 of 146 nM. Compound `O=c1[nH]nc(NC2CCN(C[C@@H](O)[C@@H]3CCc4ccccc4O3)CC2)c2ccccc12` (relative stereo) [Compound 27] has an IC50 of 215 nM. Work on `Cc1nc2sccn2c(=O)c1CCN1CCN(c2nnc(C)c3ccccc23)CC1` [Compound 73] yielded an IC50 of 515 nM. `CCOC(=O)N1CCC(Nc2n[nH]c(=O)c3ccccc23)CC1` [Compound 56] gave an IC50 of 774 nM. Work on `O=c1[nH]nc(NC2CCCN(CCCC(c3ccc(F)cc3)c3ccc(F)cc3)CC2)c2ccccc12` (stereo not shown) [Compound 30] yielded an IC50 of 230 nM. `O=c1[nH]nc(N2CCN(CCCC(c3ccc(F)cc3)c3ccc(F)cc3)CC2)c2ccccc12` [Compound 52] showed an IC50 of 356 nM. For `O=c1[nH]nc(NCC2CCCN(Cc3ccccc3)C2)c2ccccc12` (stereo not shown) [Compound 44], the IC50 was 221 nM. In the case of `Cc1nnc(N2CCN(CCn3c(=O)[nH]c4ccccc43)CC2)c2ccccc12` [Compound 71], the IC50 is reported as 533 nM. Work on `O=c1[nH]nc(C2CCNCC2)c2ccccc12` [Compound 4] yielded an IC50 of 70.8 nM. Compound `O=c1[nH]nc(C2CCN(Cc3ccccc3)CC2)c2ccccc12` [Compound 1] has an IC50 of 55 nM. `O=c1[nH]nc(NC2CCCN(Cc3ccccc3)C2)c2ccccc12` (stereo not shown) [Compound 53] gave an IC50 of 217 nM. For `Cc1nc2n(c(=O)c1CCN1CCN(c3nnc(C)c4ccccc34)CC1)CCCS2` [Compound 76], the IC50 was 413 nM. Compound `O=c1[nH]nc(C2CCN(C/C=C/c3ccccc3)CC2)c2ccccc12` [Compound 66] has an IC50 of 96.4 nM. In the case of `Clc1nnc(N2CCN(c3ccccc3)CC2)c2ccccc12` [Compound 77], the IC50 is reported as 168 nM. For `O=c1[nH]nc(NC2CCN(Cc3ccccc3)C2)c2ccccc12` (stereo not shown) [Compound 51], the IC50 was 300 nM. Work on `CCOC(=O)N1CCCC(Nc2n[nH]c(=O)c3ccccc23)CC1` (stereo not shown) [Compound 50] yielded an IC50 of 643 nM. For `Cc1nnc(N2CCN(CCCC(c3ccc(F)cc3)c3ccc(F)cc3)CC2)c2ccccc12` [Compound 29], the IC50 was 302 nM. With `Cc1nc2ccccn2c(=O)c1CCN1CCN(c2nnc(C)c3ccccc23)CC1` [Compound 72] the IC50 was 1050 nM. Work on `O=c1[nH]nc(N2CCC(c3cccc(C(F)(F)F)c3)C2)c2ccccc12` (stereo not shown) [Compound 55] yielded an IC50 of 210 nM. Work on `O=c1[nH]nc(C2CCN(CCCCOc3ccccc3)CC2)c2ccccc12` [Compound 68] yielded an IC50 of 50 nM. `O=c1[nH]nc(C2CCN(CCCC(c3ccc(F)cc3)c3ccc(F)cc3)CC2)c2ccccc12` [Compound 67] showed an IC50 of 233 nM. Compound `Clc1nnc(NC2CCN(CCCCOc3ccccc3)CC2)c2ccccc12` [Compound 59] has an IC50 of 813 nM. For `CN(c1nc2ccccc2s1)C1CCN(c2nnc(Cl)c3ccccc23)CC1` [Compound 61], the IC50 was 296 nM. With `Clc1nnc(NC2CCN(Cc3ccccc3)C2)c2ccccc12` (stereo not shown) [Compound 12] the IC50 was 188 nM. `CCOC(=O)N1[C@@H]2CC[C@H]1C[C@H](Nc1n[nH]c(=O)c3ccccc13)C2` [Compound 11] showed an IC50 of 30 nM. Work on `O=c1[nH]nc(NC2CCN(CCCCOc3ccccc3)CC2)c2ccccc12` [Compound 46] yielded an IC50 of 134 nM. `CCOC(=O)N1[C@@H]2CC[C@H]1C[C@H](Nc1nnc(Cl)c3ccccc13)C2` [Compound 24] gave an IC50 of 388 nM. `Cc1nc2scc(C)n2c(=O)c1CCN1CCN(c2nnc(C)c3ccccc23)CC1` [Compound 74] gave an IC50 of 610 nM. For `Cc1nc2n(c(=O)c1CCN1CCN(c3nnc(C)c4ccccc34)CC1)CCS2` [Compound 75], the IC50 was 361 nM. `O=c1[nH]nc(C2CCN(CCCOc3ccc(F)cc3)CC2)c2ccccc12` [Compound 13] showed an IC50 of 19.1 nM. `Cc1nnc(N2CCN(CCn3c(=O)[nH]c4ccccc4c3=O)CC2)c2ccccc12` [Compound 70] gave an IC50 of 268 nM. Compound `O=c1[nH]nc(N[C@@H]2C[C@H]3CC[C@@H](C2)N3CCCC(c2ccc(F)cc2)c2ccc(F)cc2)c2ccccc12` [Compound 3] has an IC50 of 204 nM. For `O=c1[nH]nc(C2CCN(c3ncccn3)CC2)c2ccccc12` [Compound 69], the IC50 was 125 nM. In the case of `CCOC(=O)N1CCC(c2n[nH]c(=O)c3ccccc23)CC1` [Compound 25], the IC50 is reported as 240 nM. For `CCOC(=O)N1CCC(Nc2n[nH]c(=O)c3ccccc23)C1` (stereo not shown) [Compound 48], the IC50 was 163 nM. Work on `Fc1ccc(C(CCCN2CCN(c3nnc(Cl)c4ccccc34)CC2)c2ccc(F)cc2)cc1` [Compound 57] yielded an IC50 of 472 nM.
